Data taken from ChEMBL document CHEMBL3407489, “Bis-aryl urea derivatives as potent and selective LIM kinase (Limk) inhibitors” (J Med Chem, 2015).

Columns and labels:
[1] = Oral bioavailability in Sprague-Dawley rat at 2 mg/kg by LC-MS/MS and HPLC method; type: ADME, organism-based; settings: in vivo
[2] = Volume of distribution in Sprague-Dawley rat at 1 mg/kg, iv by LC-MS/MS and HPLC method; type: ADME, organism-based; set-up: dose 1 mg/kg, route intravenous; settings: in vivo
[3] = system: Liver microsome; test: Half life in human liver microsomes; type: ADME
[4] = biological target: CYP2C9 (Homo sapiens, UniProt P11712); test: Inhibition of CYP2C9 (unknown origin) assessed as reduction in tolbutamide hydroxylation to hydrocytolbutamide at 10 uM; type: ADME
Sequence of CYP2C9 (P11712 whole entry): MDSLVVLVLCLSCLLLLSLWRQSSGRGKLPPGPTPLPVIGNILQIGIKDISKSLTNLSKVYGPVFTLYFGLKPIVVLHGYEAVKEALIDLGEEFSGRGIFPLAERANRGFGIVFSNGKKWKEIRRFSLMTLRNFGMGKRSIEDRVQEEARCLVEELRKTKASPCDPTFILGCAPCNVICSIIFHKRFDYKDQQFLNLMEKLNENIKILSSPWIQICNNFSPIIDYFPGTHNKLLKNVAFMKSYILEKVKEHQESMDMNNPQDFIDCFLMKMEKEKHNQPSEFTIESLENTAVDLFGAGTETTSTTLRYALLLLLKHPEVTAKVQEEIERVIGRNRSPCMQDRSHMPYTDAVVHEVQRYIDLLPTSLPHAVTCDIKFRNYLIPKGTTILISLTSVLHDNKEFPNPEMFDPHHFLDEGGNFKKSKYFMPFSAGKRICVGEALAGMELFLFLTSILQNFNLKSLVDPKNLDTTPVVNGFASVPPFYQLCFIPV

[5] = biological target: CYP2D6 (Homo sapiens, UniProt P10635); test: Inhibition of CYP2D6 (unknown origin) assessed as reduction in bufuralol hydroxylation to […] at 10 uM; type: ADME; settings: probe bufuralol
Sequence of CYP2D6 (P10635 whole entry): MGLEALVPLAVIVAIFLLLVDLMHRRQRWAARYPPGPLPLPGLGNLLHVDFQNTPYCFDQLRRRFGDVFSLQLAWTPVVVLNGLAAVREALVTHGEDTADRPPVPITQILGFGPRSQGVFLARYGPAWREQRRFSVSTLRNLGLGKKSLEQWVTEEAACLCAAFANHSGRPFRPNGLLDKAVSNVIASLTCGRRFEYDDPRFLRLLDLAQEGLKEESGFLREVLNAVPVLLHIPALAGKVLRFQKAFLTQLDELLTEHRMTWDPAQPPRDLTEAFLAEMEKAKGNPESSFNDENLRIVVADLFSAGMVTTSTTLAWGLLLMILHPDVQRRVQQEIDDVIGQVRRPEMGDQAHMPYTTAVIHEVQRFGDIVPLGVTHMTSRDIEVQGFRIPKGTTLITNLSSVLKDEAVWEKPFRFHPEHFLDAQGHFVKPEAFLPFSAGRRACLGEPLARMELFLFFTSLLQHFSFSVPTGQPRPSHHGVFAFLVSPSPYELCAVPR

[6] = biological target: CYP3A4 (Homo sapiens, UniProt P08684); test: Inhibition of CYP3A4 (unknown origin) assessed as reduction in midazolam hydroxylation to 1'-Hydroxymidazolam at 10 uM; type: ADME; settings: probe midazolam
Sequence of CYP3A4 (P08684 whole entry): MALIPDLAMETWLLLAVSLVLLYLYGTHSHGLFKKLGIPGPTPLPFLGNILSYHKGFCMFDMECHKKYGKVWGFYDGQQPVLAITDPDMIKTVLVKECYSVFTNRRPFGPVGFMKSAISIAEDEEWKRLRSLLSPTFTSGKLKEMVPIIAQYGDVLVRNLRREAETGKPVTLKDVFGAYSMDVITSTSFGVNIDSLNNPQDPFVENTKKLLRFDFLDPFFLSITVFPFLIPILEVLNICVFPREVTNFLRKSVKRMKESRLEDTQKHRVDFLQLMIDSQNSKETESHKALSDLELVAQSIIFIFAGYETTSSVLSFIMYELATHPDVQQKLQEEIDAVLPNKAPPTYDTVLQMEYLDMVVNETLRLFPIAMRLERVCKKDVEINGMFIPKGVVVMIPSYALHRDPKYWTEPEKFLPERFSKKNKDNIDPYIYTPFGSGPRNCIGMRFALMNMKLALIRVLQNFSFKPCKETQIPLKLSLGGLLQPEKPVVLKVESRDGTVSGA

[7] = system: Liver microsome; test: Half life in rat liver microsomes; type: ADME
[8] = biological target: T1, CYP1A2 (Homo sapiens, UniProt P05177); test: Inhibition of CYP1A2 (unknown origin) assessed as reduction in phenaceten demethylation to acetaminophen at 10 uM; type: ADME
T1 sequence (P05177 whole entry): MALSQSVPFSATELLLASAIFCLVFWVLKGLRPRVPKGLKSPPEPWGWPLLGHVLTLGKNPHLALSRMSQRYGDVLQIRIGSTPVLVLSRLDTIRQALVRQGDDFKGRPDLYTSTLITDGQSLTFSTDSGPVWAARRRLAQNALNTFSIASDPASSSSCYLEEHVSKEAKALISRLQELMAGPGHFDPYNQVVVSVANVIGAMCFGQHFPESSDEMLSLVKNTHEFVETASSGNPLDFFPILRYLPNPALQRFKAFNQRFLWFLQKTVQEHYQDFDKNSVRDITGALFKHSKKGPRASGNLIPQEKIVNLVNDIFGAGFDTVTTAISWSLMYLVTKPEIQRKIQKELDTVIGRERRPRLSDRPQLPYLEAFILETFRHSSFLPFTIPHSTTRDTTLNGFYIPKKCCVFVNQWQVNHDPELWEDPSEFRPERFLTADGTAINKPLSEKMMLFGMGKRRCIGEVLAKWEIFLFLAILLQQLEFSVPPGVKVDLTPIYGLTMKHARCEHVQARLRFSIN

[9] = biological target: LIM domain kinase 1 (Rattus norvegicus, UniProt P53669); test: Inhibition of Limk1 in rat A7r5 cells assessed as reduction in cofilin phosphorylation by Western blot method; type: cell-based
Sequence of LIM domain kinase 1 (Rattus norvegicus, UniProt P53669) (P53669 whole entry, the tested form may be a part): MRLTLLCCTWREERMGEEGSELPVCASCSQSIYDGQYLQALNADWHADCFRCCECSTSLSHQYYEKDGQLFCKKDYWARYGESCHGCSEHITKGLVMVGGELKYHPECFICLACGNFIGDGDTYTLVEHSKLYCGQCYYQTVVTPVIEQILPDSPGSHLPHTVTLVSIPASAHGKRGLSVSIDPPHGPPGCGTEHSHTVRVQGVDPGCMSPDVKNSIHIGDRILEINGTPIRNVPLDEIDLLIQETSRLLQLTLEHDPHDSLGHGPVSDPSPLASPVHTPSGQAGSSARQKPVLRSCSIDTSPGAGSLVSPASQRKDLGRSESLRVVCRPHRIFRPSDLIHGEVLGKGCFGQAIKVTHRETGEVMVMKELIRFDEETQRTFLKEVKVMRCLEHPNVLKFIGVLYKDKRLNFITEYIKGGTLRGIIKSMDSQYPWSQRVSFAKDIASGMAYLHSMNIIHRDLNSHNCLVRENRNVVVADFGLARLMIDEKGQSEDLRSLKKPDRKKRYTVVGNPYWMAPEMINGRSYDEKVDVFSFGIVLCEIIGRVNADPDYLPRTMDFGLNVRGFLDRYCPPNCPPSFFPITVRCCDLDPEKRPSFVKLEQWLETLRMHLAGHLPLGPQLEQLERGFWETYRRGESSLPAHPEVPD

[10] = biological target: T2, LIM domain kinase 1 (Homo sapiens, UniProt P53667)
T2 sequence (P53667 whole entry, the tested form may be a part): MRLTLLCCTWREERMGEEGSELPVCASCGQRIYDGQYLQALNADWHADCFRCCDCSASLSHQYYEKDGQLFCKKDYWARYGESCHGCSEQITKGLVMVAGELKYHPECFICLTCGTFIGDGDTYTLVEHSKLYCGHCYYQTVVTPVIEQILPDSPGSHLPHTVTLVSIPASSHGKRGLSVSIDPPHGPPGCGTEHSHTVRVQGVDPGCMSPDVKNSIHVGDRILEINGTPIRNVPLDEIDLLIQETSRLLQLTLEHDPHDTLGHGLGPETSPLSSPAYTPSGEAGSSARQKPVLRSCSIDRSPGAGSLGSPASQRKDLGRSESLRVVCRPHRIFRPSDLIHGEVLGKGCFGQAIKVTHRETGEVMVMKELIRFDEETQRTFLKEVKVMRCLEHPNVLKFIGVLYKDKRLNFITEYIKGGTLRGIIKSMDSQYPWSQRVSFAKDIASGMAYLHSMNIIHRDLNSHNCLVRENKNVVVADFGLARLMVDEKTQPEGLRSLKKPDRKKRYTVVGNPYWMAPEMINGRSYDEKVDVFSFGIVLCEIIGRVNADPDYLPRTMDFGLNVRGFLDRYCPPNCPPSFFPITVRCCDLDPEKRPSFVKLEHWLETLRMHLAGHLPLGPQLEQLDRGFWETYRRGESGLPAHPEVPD
Description: Inhibition of human Limk1 using cofilin substrate, ATP and [gamma33P]ATP

[11] = biological target: Rho-associated protein kinase 2 (Homo sapiens, UniProt O75116)
Sequence of Rho-associated protein kinase 2 (O75116 whole entry, the tested form may be a part): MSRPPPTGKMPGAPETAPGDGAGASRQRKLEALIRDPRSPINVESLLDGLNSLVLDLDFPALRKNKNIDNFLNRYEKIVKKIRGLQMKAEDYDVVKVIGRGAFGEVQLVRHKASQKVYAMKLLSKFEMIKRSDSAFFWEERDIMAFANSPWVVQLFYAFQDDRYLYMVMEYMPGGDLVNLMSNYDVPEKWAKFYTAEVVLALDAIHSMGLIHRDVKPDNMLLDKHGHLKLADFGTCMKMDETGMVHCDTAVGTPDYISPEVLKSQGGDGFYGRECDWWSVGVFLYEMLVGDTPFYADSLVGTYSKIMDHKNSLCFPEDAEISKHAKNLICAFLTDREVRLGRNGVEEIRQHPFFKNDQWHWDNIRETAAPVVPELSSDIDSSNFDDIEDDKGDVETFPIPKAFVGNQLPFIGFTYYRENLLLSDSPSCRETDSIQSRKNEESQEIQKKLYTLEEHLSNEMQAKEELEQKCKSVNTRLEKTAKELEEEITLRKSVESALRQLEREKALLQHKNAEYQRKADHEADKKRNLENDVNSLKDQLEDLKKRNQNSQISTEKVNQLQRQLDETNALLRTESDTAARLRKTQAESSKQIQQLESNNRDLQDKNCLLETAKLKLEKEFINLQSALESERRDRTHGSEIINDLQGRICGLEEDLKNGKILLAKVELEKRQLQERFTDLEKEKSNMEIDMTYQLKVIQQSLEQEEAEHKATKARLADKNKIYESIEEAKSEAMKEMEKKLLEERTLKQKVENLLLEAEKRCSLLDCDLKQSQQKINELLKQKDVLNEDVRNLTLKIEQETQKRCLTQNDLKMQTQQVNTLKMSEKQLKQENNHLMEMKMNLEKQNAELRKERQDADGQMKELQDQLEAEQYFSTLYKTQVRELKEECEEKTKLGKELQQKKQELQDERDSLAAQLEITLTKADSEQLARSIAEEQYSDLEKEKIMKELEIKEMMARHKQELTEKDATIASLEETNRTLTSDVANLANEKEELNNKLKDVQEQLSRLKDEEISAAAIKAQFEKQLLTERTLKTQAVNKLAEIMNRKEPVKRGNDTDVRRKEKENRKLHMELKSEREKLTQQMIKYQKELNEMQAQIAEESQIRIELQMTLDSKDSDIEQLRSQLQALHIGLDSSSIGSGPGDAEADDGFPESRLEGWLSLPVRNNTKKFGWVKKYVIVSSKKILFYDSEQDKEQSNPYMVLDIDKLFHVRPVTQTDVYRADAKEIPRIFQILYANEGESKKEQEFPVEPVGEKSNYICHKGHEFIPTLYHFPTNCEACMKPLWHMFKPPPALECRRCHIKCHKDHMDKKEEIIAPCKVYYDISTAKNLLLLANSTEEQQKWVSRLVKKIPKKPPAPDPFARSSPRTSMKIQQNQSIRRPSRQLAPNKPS

[12] = biological target: T2, LIM domain kinase 1; test: Inhibition of Limk1 (unknown origin)
[13] = system: PC-3; test: cells; settings: Homo sapiens, PC-3, 48 h, read-out: INH
Description: Inhibition of cell invasion of human PC3 cells at 1 uM after 48 hrs by hematoxylin staining based transwell chamber assay

[14] = system: PC-3; test: cells; settings: Homo sapiens, PC-3, 24 h, read-out: INH
Description: Inhibition of cell migration of human PC3 cells at 0.1 uM after 24 hrs wound healing assay

[15] = system: PC-3; test: cells; settings: Homo sapiens, PC-3, 24 h, read-out: INH; remark: listed apart in the source
Description: Inhibition of cell migration of human PC3 cells at 1 uM after 24 hrs wound healing assay

[16] = system: PC-3; test: cells; settings: Homo sapiens, PC-3, 24 h, read-out: INH; remark: listed apart in the source
Description: Inhibition of cell migration of human PC3 cells at 10 uM after 24 hrs wound healing assay

Cc1c[nH]c2ncnc(-c3ccc(NC(=O)N(CCN)c4ccc(Cl)cc4)cc3)c12
bioavailability [1]: 0% | Vd [2]: 4 L/kg

COc1ccc(N(CCO)C(=O)Nc2ccc(-c3ncnc4[nH]cc(C)c34)cc2)cc1
t1/2 [3]: 56 min | inhibition at 10 µM [4]: 8% | bioavailability [1]: 24% | inhibition at 10 µM [5]: -4% | inhibition at 10 µM [6]: 2% | t1/2 [7]: 40 min | Vd [2]: 0.3 L/kg | inhibition at 10 µM [8]: -8%

COc1ccc(N(CCN)C(=O)Nc2ccc(-c3ncnc4[nH]cc(C)c34)cc2)cc1
bioavailability [1]: 0% | Vd [2]: 6 L/kg

COc1cccc(N(CCO)C(=O)Nc2ccc(-c3ncnc4[nH]cc(C)c34)cc2)c1
t1/2 [3]: 38 min | inhibition at 10 µM [5]: 3% | t1/2 [7]: 21 min | inhibition at 10 µM [8]: 3%

Cc1[nH]c2ncnc(-c3ccc(NC(=O)N(CCO)c4ccc(Cl)cc4)c(F)c3)c2c1C
t1/2 [3]: 99 min | bioavailability [1]: 29% | inhibition at 10 µM [5]: 8% | t1/2 [7]: 44 min | Vd [2]: 0.5 L/kg | inhibition at 10 µM [8]: 40%

Cc1c[nH]c2ncnc(-c3ccc(NC(=O)N(CCO)c4ccc(Cl)cc4)cc3)c12
t1/2 [3]: > 120 min | IC50 [9]: 118 nM | bioavailability [1]: 20% | inhibition at 10 µM [5]: 4% | t1/2 [7]: 73 min | Vd [2]: 0.5 L/kg | inhibition at 10 µM [8]: -12%

COc1ccc(NC(=O)N(CCN2CCCCC2)c2ccc(-c3ncnc4[nH]cc(C)c34)cc2)cc1
IC50 [10]: > 10000 nM

Cc1c[nH]c2ncnc(-c3ccc(NC(=O)N(CCN(C)C)c4ccc(Cl)cc4)cc3)c12
bioavailability [1]: 0% | Vd [2]: 17.1 L/kg

Cc1[nH]c2ncnc(-c3ccc(NC(=O)Nc4cccc(C(=O)NC(C)C)c4)cc3)c2c1C
t1/2 [3]: 47 min | t1/2 [7]: > 120 min

COc1ccccc1N(CCO)C(=O)Nc1ccc(-c2ncnc3[nH]cc(C)c23)cc1
IC50 [11]: > 10000 nM

Cc1c[nH]c2ncnc(-c3ccc(NC(=O)N(CCO)c4cccc(Cl)c4)cc3)c12
t1/2 [3]: 22 min | IC50 [9]: 372 nM | inhibition at 10 µM [5]: 2% | t1/2 [7]: 20 min | inhibition at 10 µM [8]: -19%

Cc1[nH]c2ncnc(-c3ccc(NC(=O)N(CCN)c4ccc(Cl)cc4)c(F)c3)c2c1C
t1/2 [3]: > 120 min | inhibition at 10 µM [6]: -11% | t1/2 [7]: > 120 min

COCCN(C(=O)Nc1ccc(-c2ncnc3[nH]c(C)c(C)c23)cc1F)c1ccc(Cl)cc1
inhibition at 10 µM [4]: 50% | IC50 [9]: 250 nM | t1/2 [7]: 13 min | Vd [2]: 1.2 L/kg

COc1c(C=O)c(O)cc2c1C(=O)c1ccccc1C2=O [DAMNACANTHAL]
IC50 [12]: 800 nM

Cc1c[nH]c2ncnc(-c3ccc(NC(=O)Nc4cccc(C(=O)NC(C)C)c4)cc3)c12
bioavailability [1]: 0% | Vd [2]: 0.3 L/kg

Cc1[nH]c2ncnc(-c3ccc(NC(=O)N(CCN(C)C)c4ccc(Cl)cc4)c(F)c3)c2c1C
t1/2 [3]: 19 min | inhibition at 10 µM [4]: -23% | IC50 [9]: 320 nM | inhibition at 10 µM [5]: 20% | inhibition at 10 µM [6]: -9% | t1/2 [7]: 23 min | Vd [2]: 1.5 L/kg

COc1ccc(NC(=O)N(CCN2CCCC2)c2ccc(-c3ncnc4[nH]cc(C)c34)cc2)cc1
IC50 [10]: 9240 nM

CC(C)NC(=O)c1cccc(NC(=O)Nc2ccc(-c3ncnc4[nH]cnc34)cc2)c1
IC50 [10]: 1530 nM | IC50 [11]: 5570 nM

Cc1c[nH]c2ncnc(-c3ccc(NC(=O)N(CCO)c4ccccc4Cl)cc3)c12
IC50 [9]: 420 nM | bioavailability [1]: 21% | inhibition at 10 µM [5]: 1% | inhibition at 1 µM [13]: 83% | t1/2 [7]: 38 min | inhibition at 0.1 µM [14]: 13% | Vd [2]: 0.7 L/kg | inhibition at 10 µM [8]: -4% | inhibition at 1 µM [15]: 76.1% | inhibition at 10 µM [16]: 81%

Cc1c[nH]c2ncnc(-c3ccc(NC(=O)N(CCO)c4ccccc4)cc3)c12
t1/2 [3]: 87 min | bioavailability [1]: 36% | inhibition at 10 µM [5]: 5% | inhibition at 1 µM [13]: 76% | t1/2 [7]: 30 min | inhibition at 0.1 µM [14]: 16.5% | Vd [2]: 0.4 L/kg | inhibition at 10 µM [8]: -16% | inhibition at 1 µM [15]: 74% | inhibition at 10 µM [16]: 77.5%

CC(C)NC(=O)c1cccc(NC(=O)Nc2ccc(-c3ccnc4[nH]ccc34)cc2)c1
IC50 [10]: > 10000 nM

Cc1c[nH]c2ncnc(-c3ccc(NC(=O)Nc4ccccc4)cc3)c12
bioavailability [1]: 16% | Vd [2]: 0.5 L/kg

Cc1ccc(N(CCO)C(=O)Nc2ccc(-c3ncnc4[nH]cc(C)c34)cc2)cc1
t1/2 [3]: 56 min | bioavailability [1]: 24% | inhibition at 10 µM [5]: -4% | inhibition at 10 µM [6]: 5% | t1/2 [7]: 39 min | Vd [2]: 0.3 L/kg | inhibition at 10 µM [8]: -5%

Cc1c[nH]c2ncnc(-c3ccc(NC(=O)Nc4cccc(C(=O)NC(C)C)c4)c(F)c3)c12
t1/2 [3]: 27 min | IC50 [9]: 4000 nM | bioavailability [1]: 0% | t1/2 [7]: 55 min | Vd [2]: 0.7 L/kg

Cc1c[nH]c2ncnc(-c3ccc(NC(=O)N(CCO)c4ccc(F)cc4)cc3)c12
t1/2 [3]: 44 min | inhibition at 10 µM [5]: 3% | t1/2 [7]: 52 min | inhibition at 10 µM [8]: -4%
